Measurements as given in patent publication US7119073B2, “Peptides and their use as inhibitors of hepatitis C virus ns3 protease” (Istituto Di Ricerche Di Biologia Molecolare P. Angeletti SpA, priority 2001, dated 2006).
Where two headings read alike, the source gives them in different places. Where a SMILES comes first, the peptide text is derived from it. [ ]: non-standard residue; d: D form. The star is where a group is joined. Dip = N[C@H](C(=O)O)C(c1ccccc1)c1ccccc1; Abu(4,4-F2) = N[C@@H](CC(F)F)C(=O)O; Cha = N[C@@H](CC1CCCCC1)C(=O)O; X1 = O=C(O)c1ccc(CCN*)cc1

Key:
[1] = target: T1, full length NS3 protein noncovalently complexed with the full-length NS4A cofactor protein (NS3/NS4A complex) (Hepatitis C virus genotype 1b, UniProt P26663); assay: Full-length NS3-NS4A heterodimer protein assay (Assay A); format: biochemical, hepatitis C virus (HCV)
T1 construct: full length NS3 protein spanning residues 1027–1657 of the HCV polyprotein
Experimental: Full-Length NS3-NS4A Heterodimer Protein Assay (Assay A)
(Gallinari, P., Paolini, C., Brennan, D., Nardi, C., Steinkühler, C. and De Francesco, R. Modulation of hepatitis C virus NS3 protease and helicase activities through the interaction with NS4A. Biochemistry 38, 5620–5632, 1999)
In this assay the full length NS3 protein spanning residues 1027–1657 of the HCV polyprotein, noncovalently complexed with the full-length NS4A cofactor protein (residues 1658–1711) was used. Assays were performed in 60 μl of a buffer containing 50 mM Hepes pH 7.5, 0.15 M NaCl, 0.1% (v/v) Triton X-100, 15% (v/v) glycerol, 10 mM DTT, 2 nM NS3/NS4A complex. To this assay mix 10 μM (final concentration) of a peptide substrate corresponding to the NS5AB cleavage site and having the sequence of the NS5A-NS5B peptide, were added. Incubation times at 23° C. were adjusted to obtain <10% conversion. Reactions were stopped by the addition of 40 μl of 1% TFA. Cleavage was determined by HPLC using a Merck-Hitachi chromatograph equipped with an autosampler. 80 μl samples were injected on a Lichrospher C18 reversed phase cartridge column (4×74 mm, 5 μm, Merck) and fragments were separated using a 10–40% acetonitrile gradient at 5%/min using a flow rate of 2.5 ml/min. Peak detection was done by monitoring both the absorbance at 220 nm and tryptophan fluorescence (λex=280 nm, λem=350 nm). Cleavage products were quantitated by integration of chromatograms with respect to appropriate standards. Kinetic parameters were calculated from nonlinear least-squares fit of initial rates as a function of substrate concentration with the help of a Kaleidagraph software, assuming Michaelis-Menten kinetics.
Ki values of peptide inhibitors were calculated from substrate titration experiments performed in the presence of increasing amounts of inhibitor. Experimental data sets were simultaneously fitted to eg.1 using a multicurve fit macro with the help of a Sigmaplot software: V=(VmaxS)/(Km([…])+S); (eq.1) Alternatively, Ki values were derived from IC50 values, calculated using a four-parameter logistic function, according to eq.2: IC50=(1+S/Km)Ki (eq.2)

[2] = target: T2, NS3 protease domain complexed to a modified form of the NS4A peptide (Pep4AK) (Hepatitis C virus genotype 1b, UniProt P26663); assay: HCV NS3 protease domain/NS4A cofactor peptide assay (Assay B); format: biochemical
T2 construct: NS3 protease domain (residues 1027–1206 of the HCV polyprotein)

[3] = Table 1, NS3 protease domain/Pep4AK, 4AB peptide substrate, read-out: Assay B
[4] = Table 5, full-length NS3/NS4A, read-out: AssayA

T2 sequence (P26663 1027-1206, other chains not shown): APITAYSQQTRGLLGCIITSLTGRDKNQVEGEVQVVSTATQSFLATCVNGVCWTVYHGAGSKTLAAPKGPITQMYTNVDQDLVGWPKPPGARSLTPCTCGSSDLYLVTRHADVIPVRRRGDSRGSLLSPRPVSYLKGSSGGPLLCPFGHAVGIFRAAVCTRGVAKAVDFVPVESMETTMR
T1 sequence (P26663 1027-1657): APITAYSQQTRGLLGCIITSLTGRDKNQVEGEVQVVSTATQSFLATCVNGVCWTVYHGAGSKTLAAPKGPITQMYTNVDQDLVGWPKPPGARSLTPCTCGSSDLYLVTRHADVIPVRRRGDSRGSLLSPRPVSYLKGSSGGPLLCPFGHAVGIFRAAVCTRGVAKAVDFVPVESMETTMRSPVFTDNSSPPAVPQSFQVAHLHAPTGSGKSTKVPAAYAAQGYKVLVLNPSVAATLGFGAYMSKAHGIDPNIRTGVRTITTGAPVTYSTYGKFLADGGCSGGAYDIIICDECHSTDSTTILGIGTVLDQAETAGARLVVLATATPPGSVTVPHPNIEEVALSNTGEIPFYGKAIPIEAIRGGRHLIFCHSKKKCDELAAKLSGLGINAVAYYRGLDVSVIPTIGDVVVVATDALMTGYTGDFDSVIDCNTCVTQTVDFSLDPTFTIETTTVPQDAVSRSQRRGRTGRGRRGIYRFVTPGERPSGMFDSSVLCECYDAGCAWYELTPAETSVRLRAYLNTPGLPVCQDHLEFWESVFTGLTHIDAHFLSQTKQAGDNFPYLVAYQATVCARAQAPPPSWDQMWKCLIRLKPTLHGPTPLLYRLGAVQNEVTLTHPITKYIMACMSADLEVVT
T1 sequence (P26663 1658-1711): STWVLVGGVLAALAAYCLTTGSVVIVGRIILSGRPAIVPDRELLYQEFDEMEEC

SMILES | IC50 [1, 4] | other results
CC(C)COC(=O)NC(CCC(=O)O)C(=O)NC(CC(C)C)C(=O)NC(CS)C(=O)NCCc1c(Cl)cccc1Cl (stereo not shown) [Compound 164] | – | IC50 [1]: < 100 µM; IC50 [2, 3]: < 10 µM
CC(=O)N[C@@H](CC(=O)O)C(=O)N[C@@H](CCC(=O)O)C(=O)N[C@H](C(=O)N[C@@H](CCC(=O)O)C(=O)N[C@@H](CC1CCCCC1)C(=O)N[C@@H](CC(F)F)C(=O)NCCc1ccc(C(=O)O)cc1)C(c1ccccc1)c1ccccc1 [Compound 321] (Ac-DE[Dip]E[Cha][Abu(4,4-F2)]-X1) | – | IC50 ([1]; Table 3, full-length NS3/NS4A, read-out: Assay A): < 1 µM; IC50 ([2]; Assay B, Table 3, NS3 protease domain/Pep4AK): < 1 µM
CC(C)COC(=O)NC(CCC(=O)O)C(=O)NC(CC(C)C)C(=O)NC(CS)C(=O)NCCc1cccc(C(=O)O)c1 (stereo not shown) [Compound 133] | – | IC50 [1]: < 100 µM; IC50 [2, 3]: < 10 µM
CC(C)COC(=O)NC(CCC(=O)O)C(=O)NC(CC(C)C)C(=O)NC(CS)C(=O)NCCc1ccc(CCC(=O)O)cc1 (stereo not shown) [Compound 156] | – | IC50 [1]: < 100 µM; IC50 [2, 3]: < 10 µM
CC(C)COC(=O)NC(CCC(=O)O)C(=O)NC(CC(C)C)C(=O)NC(CS)C(=O)NCCc1ccc(C(=O)O)cc1 (stereo not shown) [Compound 151] | – | IC50 [1]: < 100 µM; IC50 [2, 3]: < 10 µM
CC(C)C[C@H](NC(=O)C1(Cc2ccsc2C(=O)O)Cc2ccccc2N1)C(=O)N[C@@H](CC(F)F)C(=O)NCCc1c(F)cc(C(=O)O)cc1F (single isomer, unassigned) [Compound 708b] | – | IC50 [1]: < 100 µM; IC50 ([2]; NS3 protease domain/NS4A cofactor peptide assay, read-out: Assay B (IC50 class)): < 10 µM
COC(=O)c1ccc(CCNC(=O)[C@H](CS)NC(=O)[C@H](CC(C)C)NC(=O)[C@H](CCC(=O)O)NC(=O)OCC(C)C)c(Cl)c1 [Compound 177] | – | IC50 [1]: < 100 µM; IC50 [2, 3]: < 10 µM
CC(C)COC(=O)N[C@H](C(=O)N1C[C@H](c2ccccc2)C[C@H]1C(=O)N[C@@H](CC(F)F)C(=O)NCCc1cccc(OC(C(=O)O)c2ccc(Br)cc2)c1)C(C)C (mixture of isomers) [Compound 570] | < 1 µM | –
CC(C)CC(NC(=O)C(CCC(=O)O)NC(=O)OC(C)(C)C)C(=O)NC(CC(F)F)C(=O)NCCc1ccccc1Cl (stereo not shown) [Compound 115] | – | IC50 [1]: < 100 µM; IC50 [2, 3]: < 10 µM
CC(C)COC(=O)N[C@H](C(=O)N1C[C@H](c2ccccc2)C[C@H]1C(=O)N[C@@H](CC(F)F)C(=O)NCCc1c(F)cc(-c2nn[nH]n2)cc1F)C(C)C [Compound 554] | < 1 µM | –
CC(C)[C@H](NC(=O)OCC1CC1)C(=O)N1C[C@H](C2CCCCC2)C[C@H]1C(=O)N[C@@H](CC(F)F)C(=O)NCCc1c(F)cc(C(=O)O)cc1F [Compound 540] | < 1 µM | –
CC(C)[C@H](O)C(=O)N1C[C@H](OCCCc2ccccc2)CC1C(=O)N[C@@H](CC(F)F)C(=O)NCCc1c(F)cc(C(=O)O)cc1F (stereo partly shown) [Compound 616] | – | IC50 ([1]; Table 6, full-length NS3/NS4A, read-out: Assay A): < 100 µM
CC(C)COC(=O)N[C@@H](CCC(=O)O)C(=O)N1C[C@H](c2ccccc2)C[C@H]1C(=O)N[C@@H](CC(F)F)C(=O)NCCc1ccccc1-c1ccccc1 [Compound 510] | < 10 µM | –
CC(C)COC(=O)N[C@H](C(=O)N1C[C@H](C2CCCCC2)C[C@H]1C(=O)N[C@@H](CC(F)F)C(=O)NCCc1ccc(C(=O)O)cc1F)C(C)C [Compound 531] | < 10 µM | –
CC(C)COC(=O)N[C@@H](CCC(=O)O)C(=O)N1C[C@H](c2ccccc2)C[C@H]1C(=O)N[C@@H](CC(F)F)C(=O)NCCc1c[nH]c2ccccc12 [Compound 575] | < 100 µM | –
CCC[S+]([O-])[C@@H]1C[C@@H](C(=O)N[C@@H](CC(F)F)C(=O)NCCc2c(F)cc(C(=O)O)cc2F)N(C(=O)[C@@H](NC(=O)OCC(C)C)C(C)C)C1 (stereo partly shown) [Compound 549] | < 10 µM | –
CC(C)COC(=O)N[C@H](C(=O)N1C[C@H](c2ccccc2)C[C@H]1C(=O)N[C@@H](CS)C(=O)NCCc1ccc(C(=O)O)cc1Cl)C(C)C [Compound 521] | < 1 µM | –
CC[C@H](C)[C@H](NC(=O)OCC(C)C)C(=O)N1C[C@H](c2ccccc2)C[C@H]1C(=O)N[C@@H](CC(F)F)C(=O)NCCc1c(F)cc(C(=O)O)cc1F [Compound 534] | < 10 µM | –
CC(C)COC(=O)N[C@H](C(=O)N1C[C@H](C2CCCCC2)C[C@H]1C(=O)N[C@@H](CC(F)F)C(=O)NCCc1ccc(C(=O)O)cc1Cl)C(C)C [Compound 532] | < 1 µM | –

SMILES | IC50 [1, 4] | other results
CC(C)[C@H](NC(=O)OC1CCCC1)C(=O)N1C[C@H](C2CCCCC2)C[C@H]1C(=O)N[C@@H](CC(F)F)C(=O)NCCc1c(F)cc(C(=O)O)cc1F [Compound 541] | < 1 µM | –
CC(C)COC(=O)N[C@H](C(=O)N1C[C@H](C2CCCCC2)C[C@H]1C(=O)N[C@@H](CC(F)F)C(=O)NCCc1c(F)cc(C(=O)NS(C)(=O)=O)cc1F)C(C)C [Compound 557] | < 1 µM | –
CC(C)[C@H](NC(=O)OCC1CCCC1)C(=O)N1C[C@H](C2CCCCC2)C[C@H]1C(=O)N[C@@H](CC(F)F)C(=O)NCCc1c(F)cc(C(=O)O)cc1F [Compound 542] | < 10 µM | –
CC(C)COC(=O)N[C@H](C(=O)N1C[C@H](c2ccccc2)C[C@H]1C(=O)N[C@@H](CC(F)F)C(=O)NCCc1cc(OC(C(=O)O)c2cccc(Cl)c2)ccc1Cl)C(C)C (mixture of isomers) [Compound 571] | < 10 µM | –
CCCS(=O)(=O)[C@@H]1C[C@@H](C(=O)N[C@@H](CC(F)F)C(=O)NCCc2c(F)cc(C(=O)O)cc2F)N(C(=O)[C@@H](NC(=O)OCC(C)C)C(C)C)C1 [Compound 550] | < 1 µM | –
CC(C)C[C@H](NC(=O)C1(Cc2ccsc2C(=O)O)Cc2ccccc2N1)C(=O)N[C@@H](CC(F)F)C(=O)NCCc1cc2ccccc2[nH]1 (single isomer, unassigned) [Compound 707a] | – | IC50 ([1]; full-length NS3-NS4A heterodimer protein assay, read-out: Assay A (IC50 class)): < 100 µM
CC(C)COC(=O)N[C@@H](CCC(=O)O)C(=O)N1C[C@H](c2ccccc2)C[C@H]1C(=O)N[C@@H](CS)C(=O)NCCc1ccc(C(=O)O)cc1Cl [Compound 520] | < 10 µM | –
CC(C)COC(=O)N[C@H](C(=O)N1C[C@H](c2ccccc2)C[C@H]1C(=O)N[C@@H](CC(F)F)C(=O)NCCc1cc(/C=C/C(=O)O)ccc1F)C(C)C [Compound 561] | < 1 µM | –
COc1cccc(S[C@@H]2C[C@@H](C(=O)N[C@@H](CC(F)F)C(=O)NCCc3c(F)cc(C(=O)O)cc3F)N(C(=O)[C@@H](NC(=O)OCC(C)C)C(C)C)C2)c1 [Compound 545] | < 1 µM | –
CC(Oc1ccc(F)c(CCNC(=O)[C@H](CC(F)F)NC(=O)[C@@H]2C[C@@H](C3CCCCC3)CN2C(=O)[C@@H](NC(=O)OCC(C)(C)C)C(C)C)c1F)C(=O)O (mixture of isomers) [Compound 567] | < 1 µM | –
CC[C@H](NC(=O)[C@@H]1C[C@@H](c2ccccc2)CN1C(=O)[C@@H](NC(=O)OCC(C)C)C(C)C)C(=O)NCCc1c(F)cc(C(=O)O)cc1F [Compound 525] | < 100 µM | –
CC(C)COC(=O)N[C@H](C(=O)N1C[C@H](C2CCCCC2)C[C@H]1C(=O)N[C@@H](CC(F)F)C(=O)NCCc1c(F)ccc(OCC(=O)O)c1F)C(C)C [Compound 565] | < 1 µM | –
CC(C)COC(=O)NC(CCC(=O)O)C(=O)N1CCCC1C(=O)NC(CS)C(=O)NCCc1ccccc1Cl (stereo not shown) [Compound 501] | < 100 µM | –
O=C(O)CC[C@H](NC(=O)[C@@H](O)c1ccccc1)C(=O)N1C[C@H](c2ccccc2)C[C@H]1C(=O)N[C@@H](CS)C(=O)NCCc1ccc(C(=O)O)cc1 [Compound 515] | < 100 µM | –
COC(=O)c1ccc(CCNC(=O)[C@H](CS)NC(=O)[C@@H]2C[C@@H](c3ccccc3)CN2C(=O)[C@H](CCC(=O)O)NS(=O)(=O)c2cccc3ccccc23)cc1 [Compound 514] | < 100 µM | –
CC(C)COC(=O)N[C@H](C(=O)N1C[C@H](OCc2ccc(C(=O)O)cc2)C[C@H]1C(=O)N[C@@H](CC(F)F)C(=O)NCCc1c(Cl)cccc1Cl)C(C)C [Compound 509] | < 100 µM | –
CC(C)COC(=O)N[C@H](C(=O)N1C[C@H](c2ccccc2)C[C@H]1C(=O)N[C@@H](CC(F)F)C(=O)NCCc1c(F)cc(C(=O)O)cc1F)C(C)(C)C [Compound 537] | < 10 µM | –
CC(C)COC(=O)N[C@H](C(=O)N1C[C@H]([S+]([O-])C2CCCCC2)C[C@H]1C(=O)N[C@@H](CC(F)F)C(=O)NCCc1c(F)cc(C(=O)O)cc1F)C(C)C (mixture of isomers) [Compound 552] | < 1 µM | –
CC(C)COC(=O)N[C@H](C(=O)N1C[C@H](C2CCCCC2)C[C@H]1C(=O)N[C@@H](CC(F)F)C(=O)NCCc1c(F)cc(C(=O)O)cc1F)C(C)(C)C [Compound 536] | < 10 µM | –
